Measurements: patent US20090012071A1, “4-SUBSTITUTED-1H-ISOTHIAZOLO[5,4-B][1,4]OXAZINO[2,3,4-IJ]QUINOLINE-7,8(2H,9H)-DIONES AND RELATED COMPOUNDS AS ANTI-INFECTIVE AGENTS” (priority 2007, published 2009)
Values belong to the molecule of their own block, whether it stands above or below them.

Columns and labels:
[1] = tested on: MRSA S. aureus (FQR700699); assay: Minimum inhibitory concentration (MIC) assay, broth microdilution; type: cell-based; set-up: MIC MRSA: unit not given beside the values; conditions: for MIC MRSA: Table I
Method: (§1) The antimicrobial activity of the compounds of the invention may be evaluated by a number of methods, including the following visual minimum inhibitory concentration (MIC) assay. This assay determines the minimum concentration of compound required to inhibit growth of a bacterial strain.
(§2) Whole-cell antibacterial activity is determined by broth microdilution using conditions recommended by the NCCLS (see National Committee for Clinical Laboratory Standards. 2001. Performance standards for antimicrobial susceptibility testing: 11th informational supplement. Vol. 21, no. 1, M100-S11. National Committee for Clinical Laboratory Standards, Wayne, Pa.). Test compounds are dissolved in DMSO and diluted 1:50 in Mueller-Hinton II broth (Becton-Dickinson) to produce a 256 μg/ml stock solution. In a 96-well microtiter plate, the compound solution is serially two-fold diluted in Mueller-Hinton II broth. After the compounds are diluted, a 50 μl aliquot of the test organism (˜1×10^6 cfu/mL) is added to each well of the microtiter plate. The final test concentrations ranges from 0.125-128 μg/mL. Inoculated plates are incubated in ambient air at 37° C. for 18 to 24 hours. The organisms selected for testing included laboratory strains S. aureus ATCC 29213 and E. coli ATCC 25922 (strains purchased from American Type Culture Collection, Manassas, Va.), S. aureus FQR700699, and Paeruginosa 27853. The minimum inhibitory concentration (MIC) is determined as the lowest concentration of compound that inhibited visible growth of the test organism.

[2] = tested on: E. coli ATCC 25922; assay: as above; type: cell-based
Method: as §1
as §2, with “The organisms selected for testing included laboratory strains S. aureus ATCC 29213 and E. coli ATCC 25922 (strains purchased from American Type Culture Collection, Manassas, Va.), S. aureus FQR700699, and Paeruginosa 27853.” left out

[3] = tested on: S. aureus ATCC 29213 (MSSA); assay: as above; type: cell-based; conditions: methicillan sufficient S. aureus
Method: as §1
as §2, with “The organisms selected for testing included laboratory strains S. aureus ATCC 29213 and E. coli ATCC 25922 (strains purchased from American Type Culture Collection, Manassas, Va.), S. aureus FQR700699, and Paeruginosa 27853.” left out

[4] = tested on: CHO (Chinese hamster ovary); conditions: CHO cells, positive control; cited from earlier work
[5] = tested on: Hep 2 (laryngeal carcinoma); conditions: Hep 2 cells, positive control; cited from earlier work

SMILES: C[C@H]1COc2c(N3CC[C@@H](CN)C3)c(F)cc3c(=O)c4c(=O)[nH]sc4n1c23 [compound 8, (S)-4-((S)-3-(aminomethyl)pyrrolidin-1-yl)-5-fluoro-1-methyl-1H-isothiazolo[5,4-b][1,4]oxazino[2,3,4-ij]quinoline-7,8(2H,9H)-dione]
MIC MRSA [1]: 0.5

SMILES: C[C@H]1COc2c(N3CCNCC3)c(F)cc3c(=O)c4c(=O)[nH]sc4n1c23 [compound 9, (S)-5-fluoro-1-methyl-4-(piperazin-1-yl)-1H-isothiazolo[5,4-b][1,4]oxazino[2,3,4-ij]quinoline-7,8(2H,9H)-dione]
MIC MRSA [1]: 8

SMILES: CC(C)(C)c1ccc(C(O)CCCN2CCC(C(O)(c3ccccc3)c3ccccc3)CC2)cc1 (stereo not drawn) [Terfenadine]
CC50 [4]: 4.3 to 6.5 µM
CC50 [5]: 3 to 5 µM

SMILES: C[C@H]1COc2c(N3CCN(C)CC3)c(F)cc3c(=O)c4c(=O)[nH]sc4n1c23 [compound 6, (S)-5-fluoro-1-methyl-4-(4-methylpiperazin-1-yl)-1H-isothiazolo[5,4-b][1,4]oxazino[2,3,4-ij]quinoline-7,8(2H,9H)-dione]
MIC MRSA [1]: 4

Other lines, results leading:

minimal inhibitory concentration (MIC) [2]: 0.062
minimal inhibitory concentration (MIC) [3]: 0.016
minimal inhibitory concentration (MIC) ([1]; methicillan resistant S. aureus): 0.125
SMILES: C[C@H]1COc2c(N3CC[C@@H](C(C)(C)N)C3)c(F)cc3c(=O)c4c(=O)[nH]sc4n1c23 [Compound II, (S)-4-((R)-3-(2-aminopropan-2-yl)pyrrolidin-1-yl)-5-fluoro-1-methyl-1H-isothiazolo[5,4-B][1,4]oxazino[2,3,4-ij]quinoline-7,8(2H,9H)-dione]

MIC MRSA [1]: 1
SMILES: C[C@H]1COc2c(N3CC[C@H](N)C3)c(F)cc3c(=O)c4c(=O)[nH]sc4n1c23 [compound 7, (S)-4-((S)-3-aminopyrrolidin-1-yl)-5-fluoro-1-methyl-1H-isothiazolo[5,4-b][1,4]oxazino[2,3,4-ij]quinoline-7,8(2H,9H)-dione]
